{
  "source": "patent US12329733B2",
  "about": "“Acetyl-leucine or a pharmaceutically acceptable salt thereof for improved mobility and cognitive function” (INTRABIO LTD., priority 2016, dated 2025)",
  "key": {"[1]": {"system": "subject suffering from imbalance and gait disorder", "assay": "home setting “get up and go test”", "type": "in vivo, human", "conditions": "Example 1: person, 4.5 g/day", "experimental": "“Mobility” refers to the ability of a subject to move. Mobility may be assessed in the elderly using one or more simple tests. As illustrated in the Examples, the “get up and go” test is a simple test capable of measuring mobility. In this test, the speed of sit to stand and walking to a target point is analysed, suitably as described in the Examples. For example, the test may begin with the subject sitting in a chair. At the start of the stop clock, the subject should rise unaided and walk to a target point. The target point may be 2-10 m away, optionally 4-6 m away. The stop clock should be stopped upon the subject reaching the target point. Any change in mobility, for example, over time or through treatment, can be monitored by using the “get up and go” test at two or more time points and comparing the results, again as illustrated in the Examples. Other suitable tests for measuring mobility include those used in the Elderly Mobility Scale (EMS), a 20-point validated assessment tool for the assessment of frail elderly subjects (9), considering locomotion, balance and key position changes. The ability of the subject to move was measured in a home setting “get up and go test”. This test involved the subject rising unaided from their chair and walking the length of their living area to their kitchen. […]"}, "[2]": {"system": "patient with postural imbalance", "assay": "timed Up and Go test (stance up-and-go test)", "type": "in vivo, human", "conditions": "Example 6: 5 g/day for 1 month; baseline 25.4 sec", "text": "(§1) The patient was examined clinically by means of the following clinical assessments: maximal distance to walk; timed Up and Go test; Scale for the Assessment and Rating of Ataxia (SARA)."}, "[3]": {"system": "patient with postural imbalance", "assay": "maximal distance to walk", "type": "in vivo, human", "conditions": "Example 6: person; 5 g/day (2/1.5/1.5 g) for 1 month; baseline 1 km", "text": "as §1\nBaseline (prior to commencement of treatment): Maximal distance to walk until the patient could not walk anymore because of fatigue was 1 km. The […] up-and-go test yielded 25.4 sec. SARA yielded 6.5/40. […] Tandem stance and gait was not possible to perform due to an increased fall risk. Mean timed 8-meter-walking test was 6.5 sec."}, "[4]": {"system": "subjects with no apparent dysfunction in cognitive ability or movement/balance", "assay": "Psychomotor Vigilance Task (Mind Metrics App, 10 trials per test)", "type": "in vivo, human", "conditions": "for Statistically significant improvement in PVT performance on treatment?: 5 g/day; for % change in Reaction Time: on-treatment vs baseline", "text": "For example, the Psychomotor Vigilance Task (PVT) is a sustained-attention, reaction-timed task that measures the speed with which subjects respond to a visual stimulus. The subject monitors a screen and presses the screen as quickly as possible upon the appearance of visual stimuli. The visual stimuli will then disappear and reappear (at irregular time intervals) e.g., 10 times over the course of the test, with the subject touching the screen as quickly as possible upon each reappearance. Test performance is quantified from an average of the e.g. 10 reaction times. The subject's reaction speed and alertness was assessed using the Mind Metrics App (Psychomotor Vigilance Task, 10 trials per test). The Psychomotor Vigilance Task (PVT) is a sustained-attention, reaction-timed task that measures the speed with which subjects respond to a visual stimulus. The subject is required to monitor a screen and press the screen as quickly as possible upon the appearance of visual stimuli. The visual stimuli will then disappear and reappear (at irregular time intervals) 10 times over the course of the test, with the subject touching the screen as quickly as possible upon each reappearance. Test performance is quantified from an average of the 10 reaction times. […] The subject was assessed for 2 weeks prior to taking acetyl-leucine, which constitutes the baseline period."}, "[5]": {"system": "subjects with no apparent dysfunction in cognitive ability or movement/balance", "assay": "balancing ability (eyes closed, non-dominant foot lifted, timed)", "type": "in vivo, human", "experimental": "Due to reported improvement in balance on treatment we measured balancing ability at the end of the treatment period and at the end of the washout period. This assessment required the subject to close their eyes and lift their non-dominant foot around 6 inches off the ground. The subject was then timed to see how long they could remain upright and without significant wobbles. This was repeated three times, and the values averaged. […] This assessment required the subject to close their eyes and lift their non-dominant foot around 6 inches off the ground. The subject was then timed to see how long they could remain upright and without significant wobbles. This was repeated three times, and the values averaged. We measured balancing ability at the end of the treatment period and at the end of the washout period. This assessment required the subject to close their eyes and lift their non-dominant foot around 6 inches off the ground. The subject was then timed to see how long they could remain upright and without significant wobbles. This was repeated three times, and the values averaged."}, "[6]": {"system": "subjects / patients", "assay": "adverse effects / tolerability", "type": "in vivo, human", "conditions": "for tolerability: 3 g/day one week then 5 g/day; for Adverse Effects: 5 g/day"}, "[7]": {"system": "vertigo", "conditions": "clinical results reported by various authors; cited from earlier work"}, "[8]": {"system": "patients with Niemann-Pick type C", "conditions": "12 patients, ref (7); cited from earlier work"}, "[9]": {"system": "patients with cerebellar ataxia of different etiologies", "conditions": "in responders, ref (8); cited from earlier work"}},
  "note": "Entries after “also recorded” stand apart in the source; their conditions may differ.",
  "data": [
    {"smiles": "CC(=O)NC(CC(C)C)C(=O)O", "note": "(racemic) [acetyl-DL-leucine]", "values": [
      {"measurement": "faster than pre-treatment in get up and go test", "setting": "[1]", "value": 25, "unit": "%"},
      {"measurement": "average time taken to rise unaided from chair and walk the length of living area to kitchen", "setting": "[1]; seven consecutive days once treatment had started, prior to treatment 40±3 seconds", "value": "30 ± 2", "unit": "s"},
      {"measurement": "stance up-and-go test", "setting": "[2]", "value": 21.2, "unit": "s"},
      {"measurement": "Maximal distance to walk", "setting": "[3]", "value": 1.5, "unit": "km"},
      {"measurement": "Statistically significant improvement in PVT performance on treatment?", "setting": "[4]; Example 7: 66 M, p<0.0001", "value": "significant improvement in Psychomotor Vigilance Task performance"},
      {"measurement": "Statistically significant improvement in PVT performance on treatment?", "setting": "[4]; Example 7: 66 M, p<0.0001, listed as acetyl-leucine", "value": "Yes"},
      {"measurement": "% change in Reaction Time", "setting": "[4]; Example 7: 66 M", "value": "−30.86", "unit": "%"},
      {"measurement": "Statistically significant improvement in PVT performance on treatment?", "setting": "[4]; Example 8: 29 M, p<0.05", "value": "small but statistically significant improvement"},
      {"measurement": "Statistically significant improvement in PVT performance on treatment?", "setting": "[4]; Example 8: 29 M, p<0.05, listed as acetyl-leucine", "value": "Yes"},
      {"measurement": "% change in Reaction Time", "setting": "[4]; Example 8: 29 M", "value": "−3.593", "unit": "%"},
      {"measurement": "Statistically significant improvement in PVT performance on treatment?", "setting": "[4]; Example 9: 55 F", "value": "not associated with significant changes"},
      {"measurement": "Statistically significant improvement in PVT performance on treatment?", "setting": "[4]; Example 9: 55 F, listed as acetyl-leucine", "value": "No"},
      {"measurement": "% change in Reaction Time", "setting": "[4]; Example 9: 55 F", "value": 1.408, "unit": "%"},
      {"measurement": "Statistically significant improvement in PVT performance on treatment?", "setting": "[4]; Example 10: […]", "value": "small, non-statistically significant decline"},
      {"measurement": "Statistically significant improvement in PVT performance on treatment?", "setting": "[4]; Example 10: […], listed as acetyl-leucine", "value": "No"},
      {"measurement": "% change in Reaction Time", "setting": "[4]; Example 10: […]", "value": 8.13, "unit": "%"},
      {"measurement": "Statistically significant improvement in PVT performance on treatment?", "setting": "[4]; Example 11: 53 M, p<0.01", "value": "statistically significant improvements"},
      {"measurement": "Statistically significant improvement in PVT performance on treatment?", "setting": "[4]; Example 11: 53 M, p<0.01, listed as acetyl-leucine", "value": "Yes"},
      {"measurement": "% change in Reaction Time", "setting": "[4]; Example 11: 53 M", "value": "−10.24", "unit": "%"},
      {"measurement": "Statistically significant improvement in PVT performance on treatment?", "setting": "[4]; Example 12: 48 F, p<0.001", "value": "statistically significant improvements"},
      {"measurement": "Statistically significant improvement in PVT performance on treatment?", "setting": "[4]; Example 12: 48 F, p<0.001, listed as acetyl-leucine", "value": "Yes"},
      {"measurement": "% change in Reaction Time", "setting": "[4]; Example 12: 48 F", "value": "−7.474", "unit": "%"},
      {"measurement": "time able to remain balanced (average of 3 tests)", "setting": "[5]; Example 7: 66 M, end of washout period", "value": 4.01, "unit": "s"},
      {"measurement": "time able to remain balanced (average of 3 tests)", "setting": "[5]; Example 7: 66 M, last day of treatment period", "value": 7.27, "unit": "s"},
      {"measurement": "time able to remain balanced (average of 3 tests)", "setting": "[5]; Example 9: 55 F, end of washout period", "value": 8, "unit": "s"},
      {"measurement": "time able to remain balanced (average of 3 tests)", "setting": "[5]; Example 9: 55 F, last day of treatment period", "value": 12, "unit": "s"},
      {"measurement": "time able to remain balanced (average of 3 tests)", "setting": "[5]; Example 11: 53 M, end of washout period", "value": 3.1, "unit": "s"},
      {"measurement": "time able to remain balanced (average of 3 tests)", "setting": "[5]; Example 11: 53 M, last day of treatment period", "value": 7.9, "unit": "s"},
      {"measurement": "side effects", "setting": "[6]; Example 1: person, 4.5 g per day, over eighteen months", "value": "no side effects"},
      {"measurement": "tolerability", "setting": "[6]; Example 3: person", "value": "well tolerated"},
      {"measurement": "tolerability", "setting": "[6]; Example 4: person", "value": "very well tolerated"},
      {"measurement": "side effects", "setting": "[6]; Example 6: 2 g/1.5 g/1.5 g per day dosage regimen", "value": "Sleepiness"},
      {"measurement": "side effects after dose reduction", "setting": "[6]; Example 6: reduced to 1 g/1 g/1 g daily after 1 month, listed as Tanganil®", "value": "cease in these side-effect symptoms; also recorded: have not returned"},
      {"measurement": "Adverse Effects", "setting": "[6]; Example 7: 66 M, first week on medication", "value": "mild dizziness/lightheadedness on one occasion"},
      {"measurement": "Adverse Effects", "setting": "[6]; Example 8: 29 M, 4 weeks", "value": "None reported"},
      {"measurement": "Adverse Effects", "setting": "[6]; Example 9: 55 F, 4 weeks", "value": "None reported"},
      {"measurement": "Adverse Effects", "setting": "[6]; Example 10: 50 M, 2 weeks", "value": "None reported"},
      {"measurement": "Adverse Effects", "setting": "[6]; Example 11: 53 M, 4 weeks", "value": "None reported"},
      {"measurement": "Adverse Effects", "setting": "[6]; Example 12: 48 F, 4 weeks", "value": "None reported"},
      {"measurement": "cases with improvement in vertigo symptomology", "setting": "[7]", "value": "more than 95%"},
      {"measurement": "ataxic symptoms", "setting": "[8]", "value": "improvement in ataxic symptoms"},
      {"measurement": "brain metabolism (PET)", "setting": "[9]", "value": "increased metabolism in the midbrain and lower brainstem"}
    ]}
  ]
}
